We go through two molecules from US20070213324A1 (priority 2006, published 2007).

Molecules are shown by their SMILES.

The conditions of data set [1]: in vivo.
For data set [2] the following is noted: cited from earlier work.
The nature of data set [3]: Phase I bioavailability study, single dose and steady state. The following applies: carisoprodol, any condition.
Method: Sixty healthy male volunteers participated in the study and were divided into four treatment groups. […] The study was prospective, single-blind, parallel, longitudinal, and comparative with a placebo and with the components of the combination administered separately, with randomized distribution into 4 groups.
A pharmacokinetic study was conducted on day 1 and day 14 so that bioavailability could be clearly identified for single dose and for multiple doses, and so that the bioequivalence of the combined product could be compared to the individual products.
Data set [4] concerns pain produced by a sprained ankle. The data set can be described thus: Phase II evaluation of pain by visual analogue scale (VAS). The data set is classed as in vivo, human. The note with it: for time from administration to analgesic effect (VAS, significant versus placebo): carisoprodol 200 mg / meloxicam 15 mg, sprained ankle.
For data set [5] the following is noted: cited from earlier work. The source holds these as a separate data set.
Data set [6] concerns platelet aggregation induced by collagen or arachidonic acid. The note with it: cited from earlier work.
The test system of data set [7] is production of thromboxane in platelets. The note with it: cited from earlier work.
Another data set concerns plasma proteins. The following applies: cited from earlier work.
In data set [8] the test system is functional recovery of patients with a sprained ankle. The data set can be described thus: Phase II functional recovery.

As usually defined, the half-life is the time in which the quantity being followed falls by half. Regarding `CCCC(C)(COC(N)=O)COC(=O)NC(C)C` (stereo not shown) [Carisoprodol], in data set [1], the blood pressure result is reported as “decrease in blood pressure”; the “changes in the physiological tests (reaction time, awareness)” value is “did not produce any changes”; the “sedative effect: MINIMENTAL test before versus after administration” value is “no significant differences”. In data set [2] (in vivo), the half-life is 8 h and the “time of initial musculoskeletal relaxant effect” value was 30 to 45 min. Moreover, the “bioequivalence, combined versus on its own” value in [3] is recorded as “no bioequivalence in any condition”.
In the case of `Cc1cnc(NC(=O)C2=C(O)c3ccccc3S(=O)(=O)N2C)s1` [Meloxicam, 4-hydroxy-2-methyl-N-(5-methyl-2-thiazolyl)-2H-1,2-benzothiazine-3-carboxamide-1,1-dioxide], the “time from administration to analgesic effect (VAS, significant versus placebo)” value is “up to 360 minutes” in data set [4] and 360 min in data set [4] (listed as meloxicam). In data set [4] (minute 360), the “p versus placebo, VAS” value was 0.021. Also, in data set [5] (methanol), the solubility in methanol entry is “very slightly soluble”. In addition, the “solubility in strong acids and bases” value in [5] (strong acids and bases) is “higher solubility”. In addition, the solubility in water result in data set [5] (water) is “practically insoluble in water”. In addition, in data set [6], the “inhibition of platelet aggregation” value is recorded as “does not inhibit”. The “production of thromboxane in platelets” value in data set [7] is “significantly reduce”. Moreover, the “bound to plasma proteins” value in the data set on plasma proteins is recorded as 99.5%. In addition, in data set [2] (after administration, enterohepatic circulation), the “time of second maximum concentration peak” value was 12 to 14 h. The “time to steady state” value in data set [2] (days of dosage) is on record as 5 days. In addition, the “effect of food intake on absorption” value in [2] (in vivo) is recorded as “not altered”. For the same molecule, the absorbed after administration in data set [2] (orally) is given as 89%. Besides, the “p versus placebo, functional recovery” value in data set [8] (1440 minutes) was 0.037. Moreover, the “time at which functional recovery is statistically different from placebo” value in [8] (in vivo) was 24 h. Also, in data set [8] (sprained ankle), the “time from administration to functional recovery (significant versus placebo)” value worked out at 1440 min.
